We go through three compounds from patent US20040162274A1, “Inhibition of steroid synthesis by use of progesterone or a progesterone receptor agonist” (priority 2002, published 2004).

Common to all, as to type: cell-based, rat
Experiment [1] deals with isolated Leydig cells of rats. Put plainly: hCG-induced cAMP production in isolated Leydig cells of rats (ELISA). The conditions noted are these: for amount of cAMP formed in the cells in response to gonadotropic stimulation: FIGS. 2 and 3. On the procedure: (§1) The testicles of young (three months old) and old (23-24 months old) Wistar rats (Charles River, Sulzfeld, Germany) were removed immediately after killing the rats by means of carbon dioxide anaesthesia and cervical dislocation.
(§2) In order to isolate and to purify the Leydig cells from the testicles of young and old rats, the decapsulated testicular mass of healthy Wistar rats was treated with collagenase (0.25 mg/ml) for 30 minutes at room temperature as described by Mukhopadhyay et al., Biochem. J., 239:463-467 (1986a), Mukhopadhyay et al., FEBS Lett., 202:111-116 (1986b)). The homogenous cell suspension so obtained was filtered through a nylon filter to obtain an impure Leydig cell preparation. After further purification by means of a Percoll gradient, the final number of high-grade purified Leydig cells was determined using a Neubauer chamber.
Aliquots of 100,000 cells per incubation tube were used for the experiments in which cAMP was measured. The cells were pre-incubated for 3 hours and subsequently incubated for 30 minutes with or without the addition of different concentrations of hCG as a surrogate for LH. In order to investigate the effect of the different steroids, Leydig cells were subjected to steroids for 3 hours as described. The cells were then stimulated with hCG (3 ng/ml) for 30 minutes. Incubation was stopped by the addition of absolute ethanol (final alcohol concentration ca. 80%) and subsequent mixing by means of vortices. The ethanol extract was evaporated until dry, and the residue dissolved in 1 ml of MEM, which contained 0.1% sodium azide. The amount of cAMP formed was determined by means of a specific ELISA, which was carried out as described in Budnik and Mukhopadhyay, FEBS Letters, 419:4-8 (1997). However, commercially available ELISAs, such as, for example, CM 59221 (IBL, Hamburg, Germany) or DE 0355 or DE 0450 (R&D Systems GmbH, Wiesbaden, Germany) can also be used.
Leydig cells were subjected to 3 different steroids for 3 hours (see FIG. 1). Subsequently, the cells were stimulated over 30 minutes with hCG (human chorion gonadotropin; 3 ng/ml) as a surrogate for LH.
The amount of cAMP formed was determined using a specific ELISA.
In general terms: Cyclic AMP is a second messenger, typically raised through Gs and lowered through Gi signalling.

Experiment [2] relates to isolated Leydig cells of rats. The experiment in a line: hCG-induced testosterone production in isolated Leydig cells of rats. The conditions noted are these: different concentrations for 3 hours, then hCG 5 ng/ml for 3 hours; testosterone in medium; FIG. 3. On the procedure: as §1, §2
Similar culture conditions as described above were used for experiments, in which testosterone was measured. However, aliquots of 50,000 cells per incubation tube were used. […] The content of testosterone was determined by means of specific, commercially available kits (IBL, Hamburg). The amount of testosterone for 100,000 cells was calculated on the basis of the measured values.
Both R5020 and drospirenone are clearly, structurally different from testosterone. […] Then, the quantity of testosterone that accumulated in the medium was measured.

Experiment [3] relates to StAR protein. The experiment in a line: StAR expression in Leydig cells in vitro (northern blot). From the text:
RNA was isolated from 1.5×10^6 high-quality cleaned Leydig cells, which were cultivated in 12-well plates (750,000 cells/well). The RNA was extracted in accordance with a modified single-step method of Chomczynski and Sacchi, Anal. Biochem., 162:156-159 (1987), using the small-scale phenol-free RNA isolation kit (Ambion Inc., Austin, Tex.). According to the size, the isolated RNA was separated by gel electrophoresis in a 1.2% agarose gel using the formaldhyde/morpholino-propane sulphonic acid method (Sambrook et al., Vol.1, 7.37, 7.39-7.52, Nolan, C. (Ed), Cold Spring Harbor Laboratory Press, Cold Spring Harbor, N.Y.). The transfer (blotting) of the RNA from the gel onto a nylon membrane (nytran, Schleicher and Schüll, Dassel, Germany) was carried out by capillary transfer using a downwards-directed transfer for 4 hours in accordance with the manufacturer's instructions (Ambion Inc., Austin, Tex.; AMS Biotechnology, Wiesbaden, Germany) with modifications by Chomczynski, P., Anal. Biochem., 201:134-139 (1992). […]
As the gestagens mentioned above apparently both have inhibitory effects on cAMP and on the production of steroids in gonadotropin-stimulated Leydig cells, the inhibitory effects of progesterone on the quantity of StAR protein expressed were analysed. […] At the end of the incubation, total RNA was extracted and StAR protein expression was analysed using northern blots. […]

For the compound `CCC(=O)[C@@]1(C)CC[C@H]2[C@@H]3CCC4=CC(=O)CCC4=C3CC[C@@]21C` [R5020], in experiment [1], the “amount of cAMP formed in the cells in response to gonadotropic stimulation” value was “drastically reduced”. In addition, the “effect on hCG-induced production of testosterone” value in experiment [2] is reported as “able to inhibit the production of testosterone”.
For `C[C@]12CCC(=O)C=C1[C@@H]1C[C@@H]1[C@H]1[C@@H]3[C@@H]4C[C@@H]4[C@@]4(CCC(=O)O4)[C@@]3(C)CC[C@@H]12` [drospirenone], in that order: “drastically reduced” and “able to inhibit the production of testosterone”.
Turning to `CC(=O)[C@H]1CC[C@H]2[C@@H]3CCC4=CC(=O)CC[C@]4(C)[C@H]3CC[C@]12C` [progesterone, 4-pregnene-3,20-dione], in experiment [1] (Leydig cells subjected to steroid 3 hours, then hCG 3 ng/ml 30 minutes, FIG. 1), the “effect on cAMP reaction to gonadotropin stimulation” value is given as “significantly inhibit”. Further, in experiment [1] (concentration 0.1 μmol/l (10^−7 mol/l)), the “effect on hCG-induced cAMP formation at 0.1 μmol/l” value is recorded as “almost no effects”. Also, the “effect on hCG-induced cAMP formation, dose-response curve” value in experiment [1] (dose-response curve, FIG. 2) was “dose-dependent inhibitory effect”. For the same compound, the “effect on hCG-induced cAMP formation at higher concentrations” value in experiment [1] (higher concentrations, up to 2.5 μmol/l) is “clearly inhibitory effects”. Moreover, the “hCG-stimulated amounts of StAR protein” value in experiment [3] (pre-incubation 3 hours, then hCG 5 ng/ml 3 hours, Lane 4 vs Lane 2, FIG. 4) was “significant reduction”. Moreover, in experiment [3] (pre-treatment 3 hours, no hCG, Lane 3, FIG. 4), the “expression of StAR protein in cells not treated with a gonadotropin” value was “did not significantly affect”.
